Source: US10131652B2, “Pyrimidinyloxy benzene derivatives as herbicides” (E. I. DU PONT DE NEMOURS AND COMPANY, priority 2014, dated 2018)
Where two headings read alike, the source gives them in different places.

Columns and labels:
Format in all cases: in vivo
[1] = test system: galium (catchweed bedstraw, Galium aparine); experiment: Test B postemergence plant response; conditions: 0 to 100 scale, 0 no effect, 100 complete control
How it was run: (§1)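 Plants grown in pots of loam soil–sand blend were sprayed postemergence with formulated test chemicals at 2 to 10 cm height, one- to two-leaf stage. After about 10 days in a greenhouse, injury was visually rated against untreated controls on a 0 to 100 scale (0 no effect, 100 complete control).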

[2] = test system: blackgrass (Alopecurus myosuroides); experiment: Test B postemergence plant response; conditions: 0 to 100 scale, 0 no effect, 100 complete control
How it was run: as §1

[3] = test system: large (Lg) crabgrass (Digitaria sanguinalis); experiment: Test B pre-/postemergence plant response; conditions: Digitaria sanguinalis, 240 h, read-out: Plant response rating, Crabgrass, Large; for pest or weed control at 125 g/ha: 125 g ai/ha; for pest or weed control at 500 g/ha: 500 g ai/ha; for pest or weed control at 1000 g/ha: 1000 g ai/ha
How it was run: (§2)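 Visual injury rating, 0 (no effect) to 100 (complete control), vs untreated controls after ~10 d greenhouse. Pre: directed soil spray after planting in loam/sand. Post: plants 2–10 cm, 1–2 leaf stage. Compound in non-phytotoxic solvent plus surfactant.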

[4] = test system: velvetleaf (Abutilon theophrasti); experiment: Test B pre-/postemergence plant response; conditions: Abutilon theophrasti, 240 h, read-out: Plant response rating, Velvetleaf; for pest or weed control at 125 g/ha: 125 g ai/ha; for pest or weed control at 500 g/ha: 500 g ai/ha; for pest or weed control at 1000 g/ha: 1000 g ai/ha
How it was run: as §2

[5] = test system: morningglory (Ipomoea spp.); experiment: Test B pre-/postemergence plant response; conditions: Ipomoea, 240 h, read-out: Plant response rating, Morningglory; for pest or weed control at 125 g/ha: 125 g ai/ha; for pest or weed control at 500 g/ha: 500 g ai/ha; for pest or weed control at 1000 g/ha: 1000 g ai/ha
How it was run: as §2

[6] = post-emergence, postemergence, 0 to 100 scale, 0 no effect, 100 complete control
[7] = post-emergence, Postemergence, 0 to 100 scale (0 no effect, 100 complete control)
[8] = pre-emergence, Preemergence, 0 to 100 scale where 0 is no effect and 100 is complete control
[9] = pre-emergence, Preemergence, 0 to 100 scale (0 no effect, 100 complete control)

Compound	pest or weed control at 125 g/ha [3, 6] [%]	pest or weed control at 500 g/ha [3, 7] [%]	pest or weed control at 125 g/ha [3, 8] [%]	pest or weed control at 500 g/ha [3, 9] [%]	pest or weed control at 125 g/ha [4, 6] [%]	pest or weed control at 500 g/ha [4, 7] [%]	pest or weed control at 125 g/ha [4, 8] [%]	pest or weed control at 500 g/ha [4, 9] [%]	pest or weed control at 125 g/ha [5, 6] [%]	pest or weed control at 500 g/ha [5, 7] [%]	pest or weed control at 125 g/ha [5, 8] [%]	pest or weed control at 500 g/ha [5, 9] [%]	other results
COc1cccc(Oc2ncc(Cl)cn2)c1-c1cc(C(F)(F)F)no1 [Compound 104]	–	–	–	–	–	–	–	–	–	–	–	–	Plant response rating, Galium ([1]; 31 g ai/ha, Postemergence): 90; Plant response rating, Galium ([1]; 125 g ai/ha, postemergence): 100; Plant response rating, Blackgrass ([2]; 31 g ai/ha, Postemergence): 70; Plant response rating, Blackgrass ([2]; 125 g ai/ha, postemergence): 100
Cc1ccc(Oc2ncc(Cl)cn2)c(-c2ccnc(C(F)(F)F)c2)c1 [Compound 24, 5-chloro-2-[4-methyl-2-[2-(trifluoromethyl)-4-pyridinyl]phenoxy]pyrimidine]	80	90	100	100	40	70	0	0	50	100	0	0	–
FC(F)(F)c1ccc(-c2ccccc2Oc2ncc(Cl)cn2)nc1 [Compound 27, 5-chloro-2-[2-[5-(trifluoromethyl)-2-pyridinyl]phenoxy]pyrimidine]	20	90	80	–	70	100	20	–	10	50	0	–	pest or weed control at 500 g/ha [3, 8]: 100%; pest or weed control at 500 g/ha [4, 8]: 60%; pest or weed control at 500 g/ha [5, 8]: 0%
Cc1ccc(Oc2ncc(Cl)cn2)c(-c2ccc(C(F)(F)F)nc2)c1 [Compound 22, 5-chloro-2-[4-methyl-2-[6-(trifluoromethyl)-3-pyridinyl]phenoxy]pyrimidine]	0	10	0	0	50	60	0	0	0	10	0	0	–
Clc1ccc(-c2c(Cl)cccc2Oc2ncc(Cl)cn2)nc1 [Compound 23, 5-chloro-2-[3-chloro-2-(5-chloro-2-pyridinyl)phenoxy]pyrimidine]	10	50	40	80	40	70	10	50	20	40	0	0	pest or weed control at 1000 g/ha [3, 7]: 60%; pest or weed control at 1000 g/ha [3, 9]: 100%; pest or weed control at 1000 g/ha [4, 7]: 70%; pest or weed control at 1000 g/ha [4, 9]: 80%; pest or weed control at 1000 g/ha [5, 7]: 70%; pest or weed control at 1000 g/ha [5, 9]: 0%
